Measured values as given in patent publication US11214803B2, “Modulators of YAP1 expression” (Ionis Pharmaceuticals, Inc., priority 2019, dated 2022).
Marks after values point to notes of the source that are not given here. Strand notation (5' to 3'): a small letter for the sugar, then the base; units joined by * are phosphorothioate-linked, units joined directly phosphodiester-linked; [ ] holds rarer units or linkages, { } end groups; capitals alone tell only the bases. k = constrained ethyl (cEt); [5mC] = 5-methylcytosine; d = 2'-deoxy (DNA)

Tested on: Yap1 mRNA
Assay: Antisense inhibition of human Yap1 in A-431 cells by cEt gapmers, single dose (Example 2, RTS4814)
Assay type: cell-based
Conditions: A-431 cells, 5,000 cells per well, free uptake, 2,000 nM modified oligonucleotide, approx. 48 hours, RTS4814, normalized to RIBOGREEN; Table 4; asterisk (*) = targets amplicon region of primer probe set
How it was run: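 Single-dose knockdown screen of 3-10-3 cEt phosphorothioate gapmers at 2,000 nM added by free uptake to A-431 cells. After roughly 48 h, RNA was isolated and Yap1 transcript measured by RT-qPCR, with results given as % UTC.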

First: 716454 (k[5mC]*kG*kA*dG*dA*dT*dT*dT*dA*dA*dA*dT*dA*kA*kG*kG; antisense) [Compound 716454]
Second: 716400 (kT*kA*kA*d[5mC]*dT*d[5mC]*d[5mC]*dT*dG*dA*d[5mC]*dA*dT*kT*kT*kT; antisense) [Compound 716400]
The “YAP1 (% UTC)” value of the first is lower: 27 % UTC for the first, 106 % UTC for the second.

For “716493 (kA*k[5mC]*kA*dT*dT*dG*dA*dA*dA*dG*dA*d[5mC]*d[5mC]*k[5mC]*kT*kT; antisense) [Compound 716493]”, the “YAP1 (% UTC)” value was 30 % UTC.

Same assay, conditions: Table 5; A-431 cells, 5,000 cells per well, free uptake, 2,000 nM modified oligonucleotide, approx. 48 hours; RTS4814; normalized to RIBOGREEN; Yap1 mRNA relative to untreated control cells

First: 716470 (kA*kA*kT*d[5mC]*dG*dA*dG*dA*d[5mC]*dT*dT*dA*dA*kA*kA*kA; antisense) [Compound 716470]
Second: 716548 (kG*kA*kG*dT*dT*dT*d[5mC]*dA*dA*d[5mC]*dA*d[5mC]*dT*kG*kA*kT; antisense) [Compound 716548]
The “YAP1 (% UTC)” value of the first is higher: 104 % UTC for the first, 31 % UTC for the second.

With “716386 (kA*kT*kT*dT*d[5mC]*dT*d[5mC]*d[5mC]*dA*dT*d[5mC]*d[5mC]*dT*kG*kA*kG; antisense) [Compound 716386]” the “YAP1 (% UTC)” value was 60 % UTC.

Same assay, conditions: Table 6; A-431 cells, 5,000 cells per well, free uptake, 2,000 nM modified oligonucleotide, approx. 48 hours; RTS4814; normalized to RIBOGREEN; Yap1 mRNA relative to untreated control cells

Compared with “716402 (kA*kT*kT*dT*dT*dG*dA*dG*dT*d[5mC]*d[5mC]*d[5mC]*dA*k[5mC]*k[5mC]*kA; antisense) [Compound 716402]”, “716513 (antisense kA*kA*kT*d[5mC]*dT*dT*dA*dA*dT*d[5mC]*dT*dG*dT*kG*kG*k[5mC]) [Compound 716513]” is lower in “YAP1 (% UTC)” value: 85 % UTC for the first, 30 % UTC for the second.

With “716414 (kG*kT*kT*d[5mC]*dA*dT*dT*d[5mC]*d[5mC]*dA*dT*d[5mC]*dT*k[5mC]*k[5mC]*kT; antisense) [Compound 716414]” the “YAP1 (% UTC)” value was 59 % UTC.

Same assay, conditions: Table 18; A-431 cells, 5,000 cells per well, free uptake, 2,000 nM modified oligonucleotide, approx. 48 hours; RTS4814; normalized to RIBOGREEN; Yap1 mRNA as percent of untreated control

Going from “1075748 (kG*kT*kA*dA*dA*dT*d[5mC]*dA*dA*dG*dT*dT*dG*k[5mC]*kA*kT; antisense) [Compound 1075748]” to “1076516 (antisense k[5mC]*kA*kT*dA*dA*dA*d[5mC]*dA*dT*dG*dA*dG*dT*kG*kG*kT) [Compound 1076516]”, the “YAP1 (% UTC)” value rises from 7 % UTC to 8 % UTC.

Same assay, conditions: Table 19; A-431 cells, 5,000 cells per well, free uptake, 2,000 nM modified oligonucleotide, approx. 48 hours; RTS4814; normalized to RIBOGREEN; Yap1 mRNA as percent of untreated control

In the case of “1074821 (kG*kA*kA*dA*dA*dG*dT*dG*dT*dT*dA*dA*dG*k[5mC]*kA*k[5mC]; antisense) [Compound 1074821]”, the “YAP1 (% UTC)” value is reported as 18 % UTC.

Same assay, conditions: Table 20; Yap1 mRNA, percent of untreated control; 3-10-3 cEt gapmers targeting SEQ ID NO.: 1 and 2

Going from “1076262 (kA*kG*kA*d[5mC]*dA*dA*dT*dA*dG*dT*d[5mC]*dT*dG*kG*kG*k[5mC]; antisense) [Compound 1076262]” to “1074630 (antisense kA*kG*kA*dG*dA*dT*dT*dT*dT*dA*dT*dG*d[5mC]*k[5mC]*kT*kG) [Compound 1074630]”, the “YAP1 (% UTC)” value falls from 41 % UTC to 5 % UTC.

First: 1075654 (kT*kA*kT*dT*dA*dA*dG*dA*d[5mC]*dG*dA*dA*dT*k[5mC]*k[5mC]*kA; antisense) [Compound 1075654]
Second: 1075366 (kA*k[5mC]*kA*d[5mC]*dG*dA*dA*dA*dA*dT*dA*dG*dT*kT*k[5mC]*kT; antisense) [Compound 1075366]
The “YAP1 (% UTC)” value of the first is higher: 76 % UTC for the first, 27 % UTC for the second.

For “1074438 (kG*kA*k[5mC]*dA*dT*dG*dA*dA*dG*d[5mC]*dA*dT*d[5mC]*kT*kG*kA; antisense) [Compound 1074438]”, the “YAP1 (% UTC)” value was 1* % UTC.

Same assay, conditions: Table 22; Yap1 mRNA as percent of untreated control; 3-10-3 cEt gapmers; single dose

Going from “1074184 (antisense kG*k[5mC]*k[5mC]*dG*dG*dT*dT*dG*dA*dG*dG*d[5mC]*dG*kG*k[5mC]*kG) [Compound 1074184]” to “1075496 (antisense kT*kT*kA*dT*dA*dT*dA*dA*dT*dG*d[5mC]*dA*dG*kG*k[5mC]*kT) [Compound 1075496]”, the “YAP1 (% UTC)” value falls from 100 % UTC to 22 % UTC.

Compared with “1075592 (k[5mC]*kG*kT*dA*dA*dT*dA*dA*dT*d[5mC]*dA*d[5mC]*d[5mC]*kT*kT*kA; antisense) [Compound 1075592]”, “1074536 (antisense kA*kG*kT*dA*dA*dT*dA*dG*d[5mC]*dT*d[5mC]*dT*dT*kT*k[5mC]*kT) [Compound 1074536]” is lower in “YAP1 (% UTC)” value: 55 % UTC for the first, 6 % UTC for the second.

Compared with “1075368 (kG*kA*kG*dA*dA*dT*dA*dA*dG*d[5mC]*dA*dA*dT*k[5mC]*kA*kG; antisense) [Compound 1075368]”, “1076040 (k[5mC]*kT*kT*dA*dA*dA*dG*dA*dA*dG*d[5mC]*dA*d[5mC]*kT*kA*kG; antisense) [Compound 1076040]” is higher in “YAP1 (% UTC)” value: 24 % UTC for the first, 105 % UTC for the second.

“1074760 (kA*k[5mC]*kA*dA*d[5mC]*d[5mC]*dA*dA*dG*dA*dA*dG*d[5mC]*kA*kG*kT; antisense) [Compound 1074760]” was tested, and the “YAP1 (% UTC)” value was 11 % UTC.

Same assay, conditions: Table 23; Yap1 mRNA as percent of untreated control; 3-10-3 cEt gapmers; single dose

“1075689 (k[5mC]*kA*kA*d[5mC]*dT*dA*dT*dA*d[5mC]*dA*dA*dG*dG*k[5mC]*kA*kA; antisense) [Compound 1075689]” was tested, and the “YAP1 (% UTC)” value was 4 % UTC.

Same assay, conditions: Table 24; Yap1 mRNA as percent of untreated control; 3-10-3 cEt gapmers targeting SEQ ID NO.: 1, and 2

Going from “1075018 (antisense k[5mC]*k[5mC]*kT*dT*dA*dA*dA*dG*dT*dG*dA*dT*dA*k[5mC]*kA*k[5mC]) [Compound 1075018]” to “1075498 (k[5mC]*kA*kT*dT*dA*dT*dA*dT*dA*dA*dT*dG*d[5mC]*kA*kG*kG; antisense) [Compound 1075498]”, the “YAP1 (% UTC)” value falls from 29 % UTC to 9 % UTC.

Going from “1075466 (antisense kT*k[5mC]*k[5mC]*dA*dA*dA*dA*dA*d[5mC]*d[5mC]*dA*dT*d[5mC]*kA*kG*kT) [Compound 1075466]” to “1074570 (antisense kA*kT*kG*dA*dA*d[5mC]*d[5mC]*dT*dA*d[5mC]*dT*d[5mC]*dA*k[5mC]*kT*kG) [Compound 1074570]”, the “YAP1 (% UTC)” value falls from 28 % UTC to 12 % UTC.

With “1076362 (k[5mC]*k[5mC]*kA*d[5mC]*dT*dA*dA*dA*dT*dA*dA*dA*dG*k[5mC]*kA*kG; antisense) [Compound 1076362]” the “YAP1 (% UTC)” value was 16 % UTC.

Same assay, conditions: Table 25; Yap1 mRNA as percent of untreated control; 3-10-3 cEt gapmers targeting SEQ ID NO.: 1, and 2

Compared with “1075243 (antisense k[5mC]*kT*kT*dA*dG*dT*dA*dA*dG*dA*dA*dT*dT*kG*kT*k[5mC]) [Compound 1075243]”, “1074539 (antisense k[5mC]*kT*kA*dT*d[5mC]*d[5mC]*dA*d[5mC]*dA*dG*dT*dA*dA*kT*kA*kG) [Compound 1074539]” is higher in “YAP1 (% UTC)” value: 4 % UTC for the first, 62 % UTC for the second.

First: 1074379 (antisense kT*kG*kG*dG*dA*dA*dA*d[5mC]*dG*dG*dT*dT*d[5mC]*kT*kG*k[5mC]) [Compound 1074379]
Second: 1074187 (antisense k[5mC]*kT*kG*d[5mC]*dG*dA*dA*dG*dG*d[5mC]*dG*dG*d[5mC]*kT*kG*k[5mC]) [Compound 1074187]
The “YAP1 (% UTC)” value of the first is lower: 20 % UTC for the first, 47 % UTC for the second.

In the case of “1074571 (antisense kT*kA*kT*dG*dA*dA*d[5mC]*d[5mC]*dT*dA*d[5mC]*dT*d[5mC]*kA*k[5mC]*kT) [Compound 1074571]”, the “YAP1 (% UTC)” value is reported as 37 % UTC.

Same assay, conditions: Table 32; Yap1 mRNA, percent of untreated control; 3-10-3 cEt gapmers targeting SEQ ID NO.: 1, and 2

Compared with “1076050 (k[5mC]*kT*kT*dT*dA*dG*dA*dT*dT*dA*dA*dA*dG*kG*k[5mC]*kT; antisense) [compound 1076050]”, “1074674 (antisense kT*kA*kT*dA*dG*dG*d[5mC]*dA*d[5mC]*dT*d[5mC]*d[5mC]*dT*kT*k[5mC]*k[5mC]) [compound 1074674]” is lower in “YAP1 (% UTC)” value: 45 % UTC for the first, 22 % UTC for the second.

Same assay, conditions: Table 33; Yap1 mRNA, percent of untreated control; 3-10-3 cEt gapmers targeting SEQ ID NO.: 1, and 2

First: 1075603 (antisense kT*kA*kT*dG*dA*dA*d[5mC]*dA*dA*dG*dT*dA*dT*kG*kA*kG) [compound 1075603]
Second: 1076371 (antisense kT*kA*kA*dG*dA*dA*d[5mC]*dG*dA*dA*d[5mC]*d[5mC]*dT*k[5mC]*k[5mC]*kA) [compound 1076371]
The “YAP1 (% UTC)” value of the first is lower: 35 % UTC for the first, 49 % UTC for the second.

“1074963 (antisense kT*kA*kG*dG*d[5mC]*dA*dA*dG*d[5mC]*dA*dG*d[5mC]*dT*kA*kA*kA) [compound 1074963]” was tested, and the “YAP1 (% UTC)” value was 76 % UTC.

Same assay, conditions: Yap1 mRNA as percent of untreated control; A-431 cells; 3-10-3 cEt gapmers targeting SEQ ID NO.: 1, and 2; Table 30

First: 1075536 (kT*kT*kA*dA*dT*dT*dA*d[5mC]*d[5mC]*d[5mC]*dA*dA*dG*kG*kA*k[5mC]; antisense) [compound 1075536]
Second: 1074512 (kG*kG*kA*dT*dA*d[5mC]*dA*dT*dT*d[5mC]*d[5mC]*dA*d[5mC]*kT*kA*k[5mC]; antisense) [compound 1074512]
The “YAP1 (% UTC)” value of the first is lower: 55 % UTC for the first, 64 % UTC for the second.

Same assay, conditions: Yap1 mRNA as percent of untreated control; A-431 cells; 3-10-3 cEt gapmers targeting SEQ ID NO.: 1, and 2; Table 31

With “1076177 (k[5mC]*kT*kT*dT*dA*dT*dT*dT*d[5mC]*d[5mC]*d[5mC]*dA*d[5mC]*k[5mC]*k[5mC]*kG; antisense) [compound 1076177]” the “YAP1 (% UTC)” value was 37 % UTC.
